According to patent publication EP0155872A1, “Process for reducing the lignin content of plants, and compositions for putting it into use” (priority 1984, dated 1985):

Legend:
CAD de peuplier [1] = target: T1, CAD de peuplier (Populus deltoides, UniProt P31657); experiment: In vitro inhibition of isolated poplar cinnamyl alcohol dehydrogenase (CAD) at 2 mM; assay type: biochemical; conditions: 2mM, CAD de peuplier; for inhibition at 2000 µM: read-out: Inhibition à 2mM %
T1 construct: CAD de peuplier isolée selon la méthode deSARNI et al,1984; from tissue; host or cells: poplar plant material
T1 sequence (P31657 1-357): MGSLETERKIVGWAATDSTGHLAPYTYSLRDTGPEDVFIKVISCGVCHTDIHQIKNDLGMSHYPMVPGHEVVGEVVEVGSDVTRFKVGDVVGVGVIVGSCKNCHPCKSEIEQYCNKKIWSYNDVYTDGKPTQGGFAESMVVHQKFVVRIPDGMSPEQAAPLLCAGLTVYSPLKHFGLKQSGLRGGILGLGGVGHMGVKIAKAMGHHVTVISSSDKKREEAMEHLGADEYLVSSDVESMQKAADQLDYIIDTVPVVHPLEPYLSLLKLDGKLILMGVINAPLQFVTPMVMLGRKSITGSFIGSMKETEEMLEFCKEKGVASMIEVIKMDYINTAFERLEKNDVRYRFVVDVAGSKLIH
Excerpt: Après réacidification à pH2 par de l'acide chlorhydrique 3N et centrifugation, le surnageant contenant les acides cinnamiques est séparé du résidu. Les "poudres alcool-benzène" ainsi hydrolysées sont lavées par de l'eau distillée jusqu'à pH neutre et séchées, sous vide dans un dessiccateur en présence de silica.-gel. Les teneurs en lignines sont estimées par la méthode gravimétriques de KLASON (Tappi Standard method Tl2m) modifiée par EFFLAND. Tappi, 60, p 143-144, 1977. On rapporte dans le tableau 1) suivant les résultats obtenus concernant l'effet mesuré in vitro d'inhibiteurs selon l'invention à une concentration de 2mM vis-à-vis de la CAD de peuplier isolée selon la méthode deSARNI et al,1984,EUROP JOURNAL OF BIOCHEMISTRY, 18(1),139, 259-265 On indique également dans ce tableau les résultats obtenus avec des composés portant des substitutions différentes de ceux mis enoe uvre dans l'invention. Les chiffres indiqués entre parenthèses a côté des formules correspondent aux composés identifiés dans les exemples de préparation 2 et 3.
On rapporte dans le tableau 2 suivant les pourcentages d'inhibition de la CAD obtenus en utilisant, à raison de 2 mM, différents composés capables de complexer Zn.

plants de maïs = experiment: Growth of maize plants treated with the inhibitors (weights, water content); assay type: in vivo
Description: Des plants de maïs ont été traités pendant 10, 20 ou 30 jours par l'OHPAS et le NH2PAS à deux concentrations (80 et 160 µM).
Les .inhibiteurs sont ajoutés au milieu nutritif.
Les cultures sur vermiculite (20 plants) sont arrosées quotidiennement par 250 ml de milieu (avec ou sans inhibiteurs). Les semis constituent le temps 0 de la culture, l'addition des inhibiteurs au milieu nutritif est réalisée dès l'émergence de la partie aérienne (2 à 3 jours). Les différentes caractéristiques des plants sont estimées après 10, 20 ou 30 jours.
Le traitement par les deux inhibiteurs conduit à des plants de maïs dont les caractéristiques pondérales et les teneurs en eau sont données dans le tableau 4. L'analyse des résultats ne montre aucune différence significative entre les plants traités et les plants témoins. De même, les tailles et l'aspect morphologique des différents lots sont similaires. Toutefois, on constate que le port dressé des maïs est légèrement affecté.

plants de mais = experiment: Primary metabolism of treated maize plants (soluble proteins, chlorophylls, nucleic acids); assay type: in vivo; conditions: plants âgés de 30 jours; 80 µM
Description: Les différentes études dont les résultats sont rapportés ci-après ont été réalisées à partir de plants de mais âgés de 30 jours et traités par l'OHPAS et le NH2PAS à la concentration de 80 µM.
Afin d'estimer l'action de l'OHPAS et du NH2PAS sur le métabolisme primaire, les teneurs de trois classes de composés ont été estimées : les protéines solubles, les chlorophyllles et les acides nucléiques.

plants de luzerne = experiment: Lignin content of 30-day alfalfa plants; assay type: in vivo; conditions: plants de luzerne de 30 jours
Excerpt: 6) Effets des inhibiteurs sur la teneur en lignines de plants de luzerne de 30 jours : • Le protocole est le même que celui décrit pour les plants de mais.
On rapporte dans le tableau 7 ci-après les pourcentages d'inhibition obtenus en fonction de la concentration en produit.

CAD de peuplier [2] = target: T1, CAD de peuplier; experiment: In vitro inhibition of isolated poplar cinnamyl alcohol dehydrogenase (CAD) at 2 mM; assay type: biochemical; conditions: mode of action study
[3] = 10 jours de culture, 160 µm en inhibiteurs
[4] = 10 jours de culture, concentration not given
[5] = 10 jours de culture, concentration not given, mean of 20 plants
[6] = 20 jours de culture, 160 µm en inhibiteurs
[7] = 20 jours de culture, concentration not given
[8] = 30 jours de culture, 160 µm en inhibiteurs
[9] = 30 jours de culture, concentration not given

| SMILES | inhibition at 2000 µM (CAD de peuplier [1]) | Poids matériel frais g/plant (plants de maïs; [3]) | Poids matériel sec g/plant (plants de maïs; [3]) | Teneur en eau g/g de poids sec (plants de maïs; [3]) | Poids matériel sec g/plant (plants de maïs; [4]) | Teneur en eau g/g de poids sec (plants de maïs; [4]) | Poids matériel frais g/plant (plants de maïs; [5]) | Poids matériel frais g/plant (plants de maïs; [6]) | Poids matériel sec g/plant (plants de maïs; [6]) | Teneur en eau g/g de poids sec (plants de maïs; [6]) | Poids matériel frais g/plant (plants de maïs; [7]) | Poids matériel sec g/plant (plants de maïs; [7]) | Teneur en eau g/g de poids sec (plants de maïs; [7]) | Poids matériel frais g/plant (plants de maïs; [8]) | Poids matériel sec g/plant (plants de maïs; [8]) | Teneur en eau g/g de poids sec (plants de maïs; [8]) | Poids matériel frais g/plant (plants de maïs; [9]) | Poids matériel sec g/plant (plants de maïs; [9]) | Teneur en eau g/g de poids sec (plants de maïs; [9]) | ADN (mg/g PS) (plants de mais) | further results |
| --- | --- | --- | --- | --- | --- | --- | --- | --- | --- | --- | --- | --- | --- | --- | --- | --- | --- | --- | --- | --- | --- |
| CC(C)(C)OC(=O)C[S+]([O-])Nc1ccccc1N (centres unmarked) [composé 5, N-(o-Amino phényl)Sulfinamoyl Acétate de tertiobutyle] | 90% | 1,00 g/plant | 0,088 g/plant | 13,36 g/g de poids sec | 0,108 g/plant | 15,70 g/g de poids sec | 1,80 g/plant | 3,25 g/plant | 0,321 g/plant | 9,12 g/g de poids sec | 3,00 g/plant | 0,298 g/plant | 9,07 g/g de poids sec | 4,80 g/plant | 0,458 g/plant | 9,48 g/g de poids sec | 4,40 g/plant | 0,438 g/plant | 9,04 g/g de poids sec | 1,38 ± 0,7 mg/g PS | Inhibition à 2mM % (CAD de peuplier [1]; 2000 µM): 80%; ARN (mg/g PS) (plants de mais): 19,81 ± 0,2 mg/g PS; Chlorophylles (mg/g PS) (plants de mais): 7,69 ± 0,3 mg/g PS; Protéines solubles (mg/g PS) (plants de mais): 49,30 ± 2 mg/g PS; % d'inhibition (teneur en lignines) (plants de luzerne; 25 µM): 20%; % d'inhibition (teneur en lignines) (plants de luzerne; 50 µM): 17%; réversibilité de l'inhibition de la CAD (CAD de peuplier [2]): faiblement réversible |
| CC(C)(C)OC(=O)C[S+]([O-])Nc1ccccc1O (centres unmarked) [composé 2, N-(o -hydroxy phényl)sulfinamoyl acétate de tertiobutyle] | 90% | 0,98 g/plant | 0,083 g/plant | 10,81 g/g de poids sec | 0,103 g/plant | 18,40 g/g de poids sec | 2,00 g/plant | 2,98 g/plant | 0,300 g/plant | 8,93 g/g de poids sec | 3,20 g/plant | 0,318 g/plant | 9,06 g/g de poids sec | 4,52 g/plant | 0,429 g/plant | 9,53 g/g de poids sec | 4,65 g/plant | 0,420 g/plant | 10,07 g/g de poids sec | 1,35 ± 0,6 mg/g PS | ARN (mg/g PS) (plants de mais): 21,08 ± 0,3 mg/g PS; Chlorophylles (mg/g PS) (plants de mais): 7,80 ± 0,3 mg/g PS; Protéines solubles (mg/g PS) (plants de mais): 49,50 ± 1 mg/g PS; % d'inhibition (teneur en lignines) (plants de luzerne; 25 µM): 13%; % d'inhibition (teneur en lignines) (plants de luzerne; 50 µM): 31%; réversibilité de l'inhibition de la CAD (CAD de peuplier [2]): faiblement réversible |
